Assay results taken from patent US9949979B2, “Use of inhibitors of the activity or function of PI3K” (NOVARTIS AG, priority 2011, dated 2018).

Assays:
TLR9 [1] = assay: TLR9-induced IFNalpha in human PBMC (CpG2216, AlphaLISA); assay type: cell-based; details: read-out: TLR9-ligand induced IFNα in human PBMC IC50
Description: (§1) 2.4 Determination of TLR9-Induced IFNalpha in Human Peripheral Blood Mononuclear Cells (PBMCs) and Isolated Plasmacytoid Dendritic Cells (pDCs)
Human blood (ca. 75 ml) was collected in 10 S-Monovette tubes containing Heparin (S-Monovette 7.5 mL NH Heparin 16 IU/mL blood; Starstedt). Leucosep™ tubes (30 mL #227290; Greiner Bio-one) were prepared by addition of 15 ml lymphocyte separation medium LSM1077™ per tube (#J15-004; PAA Laboratories) and centrifugation for 30 sec at 1000 g. Some 25 ml blood was transferred to Leucosep™ tubes following dilution with equal parts of PBS (without Ca2+/Mg2+; #14190-094). […] The PBMC were counted using a Countess® Automated cell counter (sample was pre-diluted 1:10 in Media, prior to the addition of equal volume (10 μl) of Trypan Blue). […]
(§2) Compounds were pre-diluted in 100% v/v DMSO (#41640-100 mL; Sigma-Aldrich), followed by transfer in Media (to achieve a final DMSO concentration of 0.25%). […] Plates were briefly centrifuged (200×g for 2 min at 22° C.) and supernatant samples (30 μl) removed for quantification of IFNα levels.
For quantification of IFNalpha the human interferon AlphaLISA Kit (#AL264F) from PerkinElmer was used. […] Data were collected for analysis and quantification of IFNα levels.
Data were analysed using Excel XL fit 4.0 (Microsoft) with XLfit add-in (IDBS; version 4.3.2). […]

TLR9 [2] = assay: TLR9-induced IFNalpha in isolated human pDCs (CpG2216, AlphaLISA); assay type: cell-based; details: read-out: TLR9-ligand induced IFNα in human pDCs IC50
Description: as §1
Human PBMCs were prepared using Buffy Coats as source material from healthy donations (approx. 50 ml obtained from Blutspendezentrum SRK Basel) and processed as indicated above. […]
as §2
For quantification of IFNalpha the human interferon AlphaLISA Kit (#AL264F) from PerkinElmer was used. […] After incubation, the plates were read with an EnVision™ multiplate reader equipped with the ALPHA option using the instrument's own “AlphaScreen standard settings” (e.g. total measurement time: 550 ms, Laser 680 nm excitation time: 180 ms, mirror: D640 as, emission filter: M570w, center wavelength 570 nm, bandwidth 100 nm, transmittance 75%). Data were collected for analysis and quantification of IFNα levels.
Data were analysed using Excel XL fit 4.0 (Microsoft) with XLfit add-in (IDBS; version 4.3.2). Specific IFNα concentrations were determined following extrapolation to standard curves using human IFNα B (2b). […]

IC50 (TLR9 [1]): 0.109 µM | IC50 (TLR9 [2]): 0.033 µM
SMILES: CCC(=O)N1CC[C@H](Nc2ncnc3c2CN(c2cnc(OC)c(C(F)(F)F)c2)CC3)C1 [Example 67, 1-{(S)-3-[6-(6-Methoxy-5-trifluoromethyl-pyridin-3-yl)-5,6,7,8-tetrahydro-pyrido[4,3-d]pyrimidin-4-ylamino]-pyrrolidin-1-yl}-propan-1-one]
